From patent US9428504B2, “7-hydroxy-spiropipiperidine indolinyl antagonists of P2Y1 receptor” (BRISTOL-MYERS SQUIBB COMPANY, priority 2012, dated 2016)
pKi: −log10 of the molar value. Where a name gives a salt, the structure may show the parent alone. Read-outs that look alike come from different tables or passages of the source.

Key:
[1] = biological target: cloned human P2Y1 receptors (Homo sapiens (Human), UniProt P47900); test: Binding Assay B: Scintillation Proximity Assay (SPA) for P2Y1 binding; details: for Ki: SPA, [33P] 2MeS-ADP displacement, read-out: P2Y1 Ki (nM) using binding assay B
In short: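 Scintillation proximity readout of 0.3 nM [^33P] tracer displacement from receptor membranes (~15 fmol receptor, 1.7 μg protein). Binding ran 1 h at room temperature to completion; plates were then centrifuged and aqueous phase aspirated before counting.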

[2] = system: human platelet rich plasma (PRP); test: ADP induced platelet aggregation assay; details: Homo sapiens, Platelet, read-out: PA IC50 (μM) @ 10 μM ADP, platelet aggregation induced by 10 μM ADP, human PRP

Chain of cloned human P2Y1 receptors (P47900 whole entry): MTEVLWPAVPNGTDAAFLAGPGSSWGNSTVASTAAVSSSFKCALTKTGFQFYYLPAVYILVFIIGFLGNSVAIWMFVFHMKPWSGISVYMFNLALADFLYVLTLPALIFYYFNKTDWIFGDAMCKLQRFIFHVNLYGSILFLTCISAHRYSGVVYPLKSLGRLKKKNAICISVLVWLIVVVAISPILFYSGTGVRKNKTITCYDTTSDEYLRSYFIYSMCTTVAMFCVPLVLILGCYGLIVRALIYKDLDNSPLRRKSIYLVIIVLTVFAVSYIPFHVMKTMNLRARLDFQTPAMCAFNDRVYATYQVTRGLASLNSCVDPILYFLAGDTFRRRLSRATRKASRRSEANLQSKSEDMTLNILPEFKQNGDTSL

Row | Structure (SMILES) | Ki [1] [nM] | IC50 [2] [µM] | pKi [1]
1 | CC(C)(C)CN1CCC2(CC1)CN(c1ccccc1NC(=O)Nc1nc3ccc(Cl)nc3s1)c1c(O)cccc12 [Example 172, 1-(5-Chlorothiazolo[5,4-b]pyridin-2-yl)-3-(2-(7-hydroxy-1′-neopentylspiro[indoline-3,4′-piperidine]-1-yl)phenyl)urea] | 5.3 | 0.6 | –
2 | COC(=O)c1ccc(O)c2c1C1(CCN(CC(C)(C)C)CC1)CN2c1ccccc1NC(=O)Nc1ccc(F)cc1F [Example 78, Methyl 1-(2-(3-(2,4-difluorophenyl)ureido)phenyl)-7-hydroxy-1′-neopentylspiro[indoline-3,4′-piperidine]-4-carboxylate] | 7.9 | 0.7 | –
3 | COc1ccc2nc(NC(=O)Nc3ccccc3N3CC4(CCN(CC(C)(C)C)CC4)c4c(F)ccc(O)c43)sc2c1 [Example 36, 1-(2-(4-Fluoro-7-hydroxy-1′-neopentylspiro[indoline-3,4′-piperidine]-1-yl)phenyl)-3-(6-methoxybenzo[d]thiazol-2-yl)urea] | 7.9 | 0.9 | –
4 | CC(C)(C)CN1CCC2(CC1)CN(c1ccccc1NC(=O)Nc1nc3ccccc3s1)c1c(O)ccc(Cl)c12 [Example 53, 1-(Benzo[d]thiazol-2-yl)-3-(2-(4-chloro-7-hydroxy-1′-neopentylspiro[indoline-3,4′-piperidine]-1-yl)phenyl)urea, TFA] | 7.5 | 0.5 | –
5 | CC(C)(C)CN1CCC2(CC1)CN(c1ccccc1NC(=O)Nc1nc3ccc(Cl)cc3s1)c1c(O)ccc(-c3nc4cccc(Cl)c4s3)c12 [Example 124, 1-(6-Chlorobenzo[d]thiazol-2-yl)-3-(2-(4-(7-chlorobenzo[d]thiazol-2-yl)-7-hydroxy-1′-neopentylspiro[indoline-3,4′-piperidin]-1-yl)phenyl)urea] | 51.5 | 1 | –
6 | CC(C)(C)CN1CCC2(CC1)CN(c1ccccc1NC(=O)Nc1ccc(C(C)(C)C)cc1)c1c(O)cc(F)c(F)c12 [Example 9, 1-(4-tert-Butylphenyl)-3-(2-(4,5-difluoro-7-hydroxy-1′-neopentylspiro [indoline-3,4′-piperidine]-1-yl)phenyl)urea] | 10.5 | 0.9 | –
7 | CC(C)(C)CN1CCC2(CC1)CN(c1ccccc1NC(=O)Nc1ccc(OC(F)(F)F)cc1)c1c(O)ccc(-c3nc4c(Cl)cccc4s3)c12 [Example 115, 1-(2-(4-(4-Chlorobenzo[d]thiazol-2-yl)-7-hydroxy-1′-neopentylspiro[indoline-3,4′-piperidin]-1-yl)phenyl)-3-(4-(trifluoromethoxy)phenyl)urea] | 22.8 | 1 | –
8 | COc1ccc2nc(-c3ccc(O)c4c3C3(CCN(CC(C)(C)C)CC3)CN4c3ccccc3NC(=O)Nc3csc(Cl)n3)sc2c1 [Example 128, 1-(2-Chlorothiazol-4-yl)-3-(2-(7-hydroxy-4-(6-methoxybenzo[d]thiazol-2-yl)-1′-neopentylspiro[indoline-3,4′-piperidin]-1-yl)phenyl)urea] | 8 | 0.2 | –
9 | CC(C)(C)CN1CCC2(CC1)CN(c1ccccc1NC(=O)Nc1csc(Cl)n1)c1c(O)ccc(-c3nc4cc(F)ccc4s3)c12 [Example 112, 1-(2-Chlorothiazol-4-yl)-3-(2-(4-(5-fluorobenzo[d]thiazol-2-yl)-7-hydroxy-1′-neopentylspiro[indoline-3,4′-piperidin]-1-yl)phenyl)urea] | 9.5 | 0.2 | –
10 | CC(C)CN1CCC2(CC1)CN(c1ccccc1NC(=O)Nc1ccc(C(F)(F)F)cc1)c1c(O)ccc(Cl)c12 [Example 64, 1-(2-(4-Chloro-7-hydroxy-1′-isobutylspiro[indoline-3,4′-piperidine]-1-yl)phenyl)-3-(4-(trifluoromethyl)phenyl)urea] | 6.5 | 1 | –
11 | CC(C)(C)CN1CCC2(CC1)CN(c1ccccc1NC(=O)Nc1ccc(C(C)(C)C)cc1)c1c(O)ccc(C#N)c12 [Example 82, l-(4-tert-Butylphenyl)-3-(2-(4-cyano-7-hydroxy-1′-neopentylspiro[indoline-3,4′-piperidine]-l-yl)phenyl)urea, trifluoroacetic acid salt] | 24.8 | 1 | –
12 | CC(C)(C)CN1CCC2(CC1)CN(c1ccccc1NC(=O)Nc1nc3ccc(Cl)cc3s1)c1c(O)cc(F)c(F)c12 [Example 96, l-(6-Chlorobenzo[d]thiazol-2-yl)-3-(2-(4,5-difluoro-7-hydroxy-1′-neopentylspiro[indoline-3,4′-piperidine]-1-yl)phenyl)urea] | 25.8 | 0.3 | –
13 | CCN(CC)S(=O)(=O)c1ccc(O)c2c1C1(CCN(CC(C)(C)C)CC1)CN2c1ccccc1NC(=O)Nc1ccc(C(C)(C)C)cc1 [Example 90, 1-(2-(3-(4-tert-Butylphenyl)ureido)phenyl)-N,N-diethyl-7-hydroxy-1′-neopentylspiro [indoline-3,4′-piperidine]-4-sulfonamide, trifluoroacetic acid salt] | 3.5 | 0.2 | –
14 | CC(C)CN1CCCC1c1ccc(NC(=O)Nc2ccccc2N2CC3(CCN(CC(C)(C)C)CC3)c3c(F)c(F)cc(O)c32)cc1 (centres unmarked) [Example 104, 1-(2-(4,5-Difluoro-7-hydroxy-1′-neopentylspiro [indoline-3,4′-piperidine]-1-yl)phenyl)-3-(4-(1-isobutylpyrrolidin-2-yl)phenyl)urea] | 17 | 1 | –
15 | COc1ccc2nc(-c3ccc(O)c4c3C3(CCN(CC(C)(C)C)CC3)CN4c3ccccc3NC(=O)Nc3csc(C(F)(F)F)n3)sc2c1 [Example 129, 1-(2-(7-Hydroxy-4-(6-methoxybenzo[d]thiazol-2-yl)-1′-neopentylspiro[indoline-3,4′-piperidin]-1-yl)phenyl)-3-(2-(trifluoromethyl)thiazol-4-yl)urea] | 8.7 | 0.7 | –
16 | CC(C)(C)CN1CCC2(CC1)CN(c1ccccc1NC(=O)Nc1nc3ccc(Cl)nc3s1)c1c(O)ccc(F)c12 [Example 168, 1-(5-Chlorothiazolo[5,4-b]pyridin-2-yl)-3-(2-(4-fluoro-7-hydroxy-1′-neopentylspiro-[indoline-3,4′-piperidine]-1-yl)phenyl)urea] | 8.6 | 0.3 | –
17 | CC(C)(C)CN1CCC2(CC1)CN(c1ccccc1NC(=O)Nc1nc3ccc(F)cc3s1)c1c(O)cc(F)c(-c3nc4cc(Cl)ccc4s3)c12 [Example 140, 1-(2-(4-(5-Chlorobenzo[d]thiazol-2-yl)-5-fluoro-7-hydroxy-1′-neopentylspiro[indoline-3,4′-piperidin]-1-yl)phenyl)-3-(6-fluorobenzo[d]thiazol-2-yl)urea] | 52.4 | 0.6 | –
18 | CC(C)CN1CCCC1c1ccc(NC(=O)Nc2ccccc2N2CC3(CCN(CC(C)(C)C)CC3)c3c(F)cc(F)c(O)c32)cc1 (centres unmarked) [Example 99, 1-(2-(4,6-Difluoro-7-hydroxy-1′-neopentylspiro [indoline-3,4′-piperidine]-1-yl)phenyl)-3-(4-(1-isobutylpyrrolidin-2-yl)phenyl)urea] | – | 1.7 | 7.85
19 | CC(C)(C)CN1CCC2(CC1)CN(c1ccccc1NC(=O)Nc1ccc(OC(F)(F)F)cc1)c1c(O)c(F)cc(-c3ccc(F)cc3)c12 [Example 153, 1-(2-(6-Fluoro-4-(4-fluorophenyl)-7-hydroxy-1′-neopentylspiro[indoline-3,4′-piperidin]-1-yl)phenyl)-3-(4-(trifluoromethoxy)phenyl)urea] | 11.5 | 0.4 | –
20 | CC(C)(C)CN1CCC2(CC1)CN(c1ccccc1NC(=O)Nc1nc3ccc(F)nc3s1)c1c(O)cc(F)c(Cl)c12 [Example 102, 1-(2-(4-Chloro-5-fluoro-7-hydroxy-1′-neopentylspiro [indoline-3,4′-piperidin]-1-yl)phenyl)-3-(5-fluorothiazolo [5,4-b]pyridin-2-yl)urea] | 12.6 | 0.6 | –
21 | CC(C)(C)CN1CCC2(CC1)CN(c1ccccc1NC(=O)Nc1nc3ccc(Cl)cc3s1)c1c(O)ccc(-c3nc4ccc(F)cc4s3)c12 [Example 145, 1-(6-Chlorobenzo[d]thiazol-2-yl)-3-(2-(4-(6-fluorobenzo[d]thiazol-2-yl)-7-hydroxy-1′-neopentylspiro[indoline-3,4′-piperidin]-1-yl)phenyl)urea] | 18.4 | 0.6 | –
22 | CC(C)(C)CN1CCC2(CC1)CN(c1ccccc1NC(=O)Nc1nc3ccc(Cl)cc3s1)c1c(O)ccc(-c3nc4cc(Cl)ccc4s3)c12 [Example 149, 1-(6-Chlorobenzo[d]thiazol-2-yl)-3-(2-(4-(5-chlorobenzo[d]thiazol-2-yl)-7-hydroxy-1′-neopentylspiro[indoline-3,4′-piperidin]-1-yl)phenyl)urea] | 26.8 | 0.9 | –
23 | CC(C)(C)CN1CCC2(CC1)CN(c1ccccc1NC(=O)Nc1nc3ccc(Cl)nc3s1)c1c(O)ccc(-c3nc4ccc(Cl)cc4s3)c12 [Example 125, 1-(2-(4-(6-Chlorobenzo[d]thiazol-2-yl)-7-hydroxy-1′-neopentylspiro[indoline-3,4′-piperidin]-1-yl)phenyl)-3-(5-chlorothiazolo[5,4-b]pyridin-2-yl)urea] | 21.6 | 0.9 | –
24 | CC(C)(C)CN1CCC2(CC1)CN(c1ccccc1NC(=O)Nc1ccc(OC(F)(F)F)cc1)c1c(O)cc(F)c(-c3nc4cc(Cl)ccc4s3)c12 [Example 137, 1-(2-(4-(5-Chlorobenzo[d]thiazol-2-yl)-5-fluoro-7-hydroxy-1′-neopentylspiro[indoline-3,4′-piperidin]-1-yl)phenyl)-3-(4-(trifluoromethoxy)phenyl)urea] | 44.7 | 0.4 | –
25 | CC(C)(C)CN1CCC2(CC1)CN(c1ccccc1NC(=O)Nc1ccc(C(C)(C)C)cc1)c1c(O)ccc(Cl)c12 [Example 55, 1-(4-tert-Butylphenyl)-3-(2-(4-chloro-7-hydroxy-1′-neopentylspiro[indoline-3,4′-piperidine]-1-yl)phenyl)urea] | 9.7 | 1 | –
